Data taken from US20230136702A1, “Inhibitors of Human Herpesviruses” (The Governors of the University of Alberta, priority 2020, published 2023).
Counter-ions that a name gives are not always drawn.

Assays:
[1] = Cytotoxicity in MRC5 cells without virus infection (CCK8); format: cell-based; settings: human
Experimental: (§1) Exemplary compounds (e.g., as described herein) were prepared as 20 mM stock solutions with DMSO. Reference compound was ganciclovir (Sigma). Compounds were tested at 8 concentrations, 3-fold serial dilutions, in duplicate for EC50 and CC50 determinations. The highest testing concentrations of the exemplary compounds and reference compound were 40 μM and 100 μM, respectively. The final concentration of DMSO in the cell culture was 0.5%.
(§2) MRC5 cells (ATCC CCL-171) was obtained from the ATCC and maintained in the EMEM (Sigma) supplemented with 10% FBS (HyClone), 1% L-glutamine (Gibco), 1% NEAA (Gibco), and 1% PS (Hyclone). Reagent:
Cytotoxicity of the compounds was assessed under the same conditions, but without virus infection, in parallel. Cell viability was measured with CCK8 following the manufacturer's manual. CC50 values were then calculated based on cytotoxicity at the test concentrations normalized by the medium control (medium only).
(§3) Antiviral activity and cytotoxicity of the compounds were expressed as % Inhibition and % Viability, respectively, and calculated with the formulas below:
Viability (%)=(Raw dataCPD−AverageMC)/(AverageCC−AverageMC)*100
(§4) Raw dataCPD indicates the values of the compound-treated wells; AverageVC, AverageCC and AverageMC indicate the average values of the virus control (cells infected with virus, without compound treatment), cell control and medium control wells, respectively.
(§5) EC50 and CC50 values were calculated using the GraphPad Prism software.

[2] = test system: HCMV US3-6-EGFP-HCMV-AD169 strain; test: In vitro inhibitory (antiviral) activity against HCMV, GFP reporter in MRC5 cells; format: cell-based, Human cytomegalovirus (HCMV); settings: Human betaherpesvirus 5, AD169, MRC5, 96 h, read-out: HCMV Antiviral EC50 range
Experimental: as §1
HCMV US3-6-EGFP-HCMV-AD169 strain was obtained from Institute Pasteur of Shanghai, CAS. The virus contains GFP as a reporter of the viral replication.
as §2
In 96-well plates, MRC5 cells were seeded at 20,000 cells per well and cultured at 37° C. and 5% C02 overnight. Next day, compounds (8 concentrations, 3-fold dilutions, in duplicate) and US3-6-EGFP-HCMV-AD169 (MOI=0.1) were added to the cells. The resulting cultures were incubated at 37° C. and 5% C02 for 4 days. Fluorescence intensity was determined by Acumen Cellista (TTP LabTech). The antiviral activity of each compound was calculated based on the inhibition of expression of GFP at each concentration normalized by the cell control (cells without virus infection or compound treatment).
as §3
Inhibition (%)=100−(Raw dataCPD−AverageCC)/(AverageVC−AverageCC)*100
as §4, §5

[3] = biological target: T1, hERG potassium channel (Homo sapiens, UniProt Q12809); test: Inhibition of hERG potassium channel, automated patch clamp (SyncroPatch 384PE) in CHO cells; format: cell-based; settings: CHO cells stably expressing hERG, room temperature, 0.494-40.00 μM; read-out: CHO-hERG Activity Range
T1 construct: host or cells: CHO cells stably expressing hERG
Experimental: This automated patch clamp method (SyncroPatch 384PE) CHO cells stably expressing hERG potassium channels from Sophion Biosciences were used for this test.
The cells were cultured in a humidified and air-controlled (5% C02) incubator at 37° C.
The CHO cells which were at least two days after plating and more than 75% confluent would be used for experiments. Before testing, cells were harvested using TrypLE and resuspended in the physiological solution at the room temperature.
For the electrophysiological recordings the following solutions were used (Table 5). The physiological solution and external solution were prepared at least one month. The intracellular solution was prepared in batches aliquoted, and stored at 4° C. until used.
Exemplary compounds (e.g., as described herein) were dissolved in 100% DMSO to obtain stock solutions for different test concentrations. Then the stock solutions were further diluted into external solution to achieve final concentrations for testing. Visual check for precipitation was conducted before testing. Final DMSO concentration in external solution was not more than 0.30% for the compounds.
From this holding potential of −80 mV, the voltage was first stepped to −50 mV for 80 ms for leak subtraction, and then stepped to +20 mV for 4800 ms to open hERG channels. After that, the voltage was stepped back down to −50 mV for 5000 ms, causing a “rebound” or tail current, which was measured and collected for data analysis. Finally, the voltage was stepped back to the holding potential (−80 mV, 1000 ms). This voltage command protocol was repeated every 20000 msec. This command protocol was performed continuously during the test (vehicle control and test compound).
hERG SyncroPatch assay was conducted at room temperature. The Setup, Prime Chip, Catch and Seal Cells, Amplifier Settings, Voltage and Application Protocols were established with Biomek Software (Nanion).
One addition of 40 μL of the vehicle was applied, followed by 300s for a baseline period. Then the doses of exemplary test compounds were added with 40 μL. The exposure of test compound at each concentration was no less than 300s. […] Five concentrations (0.494 μM, 1.48 μM, 4.44 μM, 13.33 μM and 40.00 μM) were tested for each compound. Minimum 2 replicates per concentration were obtained.
Within each well recording, percent of control values were calculated for each test compound concentration current response based on peak current in presence of reference control (current response/peak current)×100%. The Dose-Response curves were fit to the standard Hill equation as shown below:
Ipost cpd/Ipre cpd=Bottom+(Top−Bottom)/(1+10^((Log IC50−X)*HillSlope))
Where X is the logarithm of concentration, Ipost cpd/Ipre cpd is the normalized peak current amplitude, Top is 1 and Bottom is equal to 0.
Curve-fitting and IC50 calculations were performed by GraphPad Prism 5.0. If the inhibition obtained at the lowest concentration tested was over 50%, or at the highest concentration tested was less than 50%, we reported the IC50 as less than lowest concentration, or higher than highest concentration, respectively.

[4] = biological target: T2, HCMV DNA polymerase (UL54) (Human cytomegalovirus, UniProt P08546); test: HCMV DNA polymerase enzyme inhibition assay (ProFoldin, fluorescence); format: biochemical; settings: 37° C., duplicate, max 40 μM
T2 construct: 6His (C); made in house; host or cells: Sf9 insect cells (baculovirus, pFastBac)
Experimental: The HCMV DNA polymerase assay was developed by ProFoldin. The assay detects the formation of DNA from the DNA polymerase reaction in the presence of a DNA template, dATP and dGTP. The formation of the DNA is detected by using a fluorescence method. The fluorescence intensity increases when DNA is generated by the enzyme reaction.
A time-course experiment was performed aside the enzyme inhibition assay to ensure the assay was sensitive to the enzyme inhibition. The wells for the time-course experiment contained 1 μL of DMSO and the same reaction mixture as that in the enzyme inhibition assay. The time-course data varied between plates. The reactions were stopped when the fluorescence reached a value of about 3700 for each plate.
Exemplary solid compounds (e.g., as described herein) were dissolved in DMSO to make […] stock solutions. PFA (phosphonoformic acid or phosphonomethanoic acid) was used as a positive control. The compound mother plates were prepared at 50× concentrated compound concentrations with a 2-fold serial dilution. All the exemplary compounds except PFA were diluted in DMSO. PFA was diluted in water. The maximum compound concentration was 2 mM that gave the final concentration of 40 μM in the assay. One microliter of the 50× stock solutions was transferred into the assay plates. Three copies of assay plates were prepared, two for HCMV DNA polymerase assay and one for compound background control.
The following is the protocol for enzyme inhibition performed at 37° C.:
1. Prepared a premix composed of 35347 μL of H2O, 5220 μL of 10× assay buffer and 149 μL of 350×HCMV DNA polymerase.
2. Added 39 μL of the premix into the wells with 1 μL of the compound. Incubated the mixture for at least 5 min.
3. Added 10 μL of 5×dNTP (0.1 mM), 5×DNA template solutions into each well and incubated the solution until the fluorescence value reached a value about 3700 for the DMSO-only control wells.
4. Added 50 μL of the 1× dye into the wells.
5. Read the fluorescence at emission wavelength of 535 nm and excitation wavelength of 485 nm.
For the compound background reading, added 99 μL of water in the wells with 1 μL of compounds and read the fluorescence. […] The 0% inhibition value F0 was from the wells with DMSO (no inhibitor).
The background values were subtracted from the fluorescence reading to get the net fluorescence values. The net fluorescence values were used for calculation of the percentage inhibition.
The assay was performed in duplicate for the test article at […], 1.25, 0.625, 0.313, 0.156 and 0.078 μM. The IC50 curves were obtained by fitting the percentage inhibition values with the compound concentrations using Prism GraphPad software.

T2 sequence (P08546 whole entry): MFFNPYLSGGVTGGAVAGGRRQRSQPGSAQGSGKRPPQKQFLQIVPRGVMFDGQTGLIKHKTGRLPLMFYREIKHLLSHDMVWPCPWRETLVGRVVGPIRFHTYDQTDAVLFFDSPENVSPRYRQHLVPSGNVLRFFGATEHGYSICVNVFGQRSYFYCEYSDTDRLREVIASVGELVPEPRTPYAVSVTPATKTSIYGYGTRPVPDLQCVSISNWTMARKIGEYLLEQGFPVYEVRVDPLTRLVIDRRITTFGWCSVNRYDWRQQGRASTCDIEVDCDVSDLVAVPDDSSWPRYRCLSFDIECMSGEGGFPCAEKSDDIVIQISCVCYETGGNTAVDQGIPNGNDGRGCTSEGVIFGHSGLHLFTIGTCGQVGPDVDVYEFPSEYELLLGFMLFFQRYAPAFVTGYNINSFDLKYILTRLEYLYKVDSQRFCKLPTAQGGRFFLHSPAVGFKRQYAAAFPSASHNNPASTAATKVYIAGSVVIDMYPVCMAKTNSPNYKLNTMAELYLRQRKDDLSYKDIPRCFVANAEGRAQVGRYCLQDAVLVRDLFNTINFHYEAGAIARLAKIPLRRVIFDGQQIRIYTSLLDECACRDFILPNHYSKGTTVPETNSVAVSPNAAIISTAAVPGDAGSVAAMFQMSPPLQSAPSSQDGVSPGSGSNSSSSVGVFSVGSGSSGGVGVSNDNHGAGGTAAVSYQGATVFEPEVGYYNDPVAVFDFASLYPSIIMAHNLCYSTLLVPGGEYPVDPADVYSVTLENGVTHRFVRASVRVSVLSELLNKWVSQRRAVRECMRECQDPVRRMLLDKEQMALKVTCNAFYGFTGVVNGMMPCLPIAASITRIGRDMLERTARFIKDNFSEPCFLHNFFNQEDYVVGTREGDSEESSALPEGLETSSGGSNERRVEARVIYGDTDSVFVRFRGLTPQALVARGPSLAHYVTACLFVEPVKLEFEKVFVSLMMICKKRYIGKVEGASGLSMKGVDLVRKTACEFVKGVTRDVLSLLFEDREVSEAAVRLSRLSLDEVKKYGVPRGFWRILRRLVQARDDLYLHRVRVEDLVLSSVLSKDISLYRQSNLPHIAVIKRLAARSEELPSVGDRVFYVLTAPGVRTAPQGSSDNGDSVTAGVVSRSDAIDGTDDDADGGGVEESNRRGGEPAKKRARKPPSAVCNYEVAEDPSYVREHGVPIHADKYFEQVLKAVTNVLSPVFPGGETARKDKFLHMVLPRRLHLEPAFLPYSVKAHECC
T1 sequence (Q12809 whole entry): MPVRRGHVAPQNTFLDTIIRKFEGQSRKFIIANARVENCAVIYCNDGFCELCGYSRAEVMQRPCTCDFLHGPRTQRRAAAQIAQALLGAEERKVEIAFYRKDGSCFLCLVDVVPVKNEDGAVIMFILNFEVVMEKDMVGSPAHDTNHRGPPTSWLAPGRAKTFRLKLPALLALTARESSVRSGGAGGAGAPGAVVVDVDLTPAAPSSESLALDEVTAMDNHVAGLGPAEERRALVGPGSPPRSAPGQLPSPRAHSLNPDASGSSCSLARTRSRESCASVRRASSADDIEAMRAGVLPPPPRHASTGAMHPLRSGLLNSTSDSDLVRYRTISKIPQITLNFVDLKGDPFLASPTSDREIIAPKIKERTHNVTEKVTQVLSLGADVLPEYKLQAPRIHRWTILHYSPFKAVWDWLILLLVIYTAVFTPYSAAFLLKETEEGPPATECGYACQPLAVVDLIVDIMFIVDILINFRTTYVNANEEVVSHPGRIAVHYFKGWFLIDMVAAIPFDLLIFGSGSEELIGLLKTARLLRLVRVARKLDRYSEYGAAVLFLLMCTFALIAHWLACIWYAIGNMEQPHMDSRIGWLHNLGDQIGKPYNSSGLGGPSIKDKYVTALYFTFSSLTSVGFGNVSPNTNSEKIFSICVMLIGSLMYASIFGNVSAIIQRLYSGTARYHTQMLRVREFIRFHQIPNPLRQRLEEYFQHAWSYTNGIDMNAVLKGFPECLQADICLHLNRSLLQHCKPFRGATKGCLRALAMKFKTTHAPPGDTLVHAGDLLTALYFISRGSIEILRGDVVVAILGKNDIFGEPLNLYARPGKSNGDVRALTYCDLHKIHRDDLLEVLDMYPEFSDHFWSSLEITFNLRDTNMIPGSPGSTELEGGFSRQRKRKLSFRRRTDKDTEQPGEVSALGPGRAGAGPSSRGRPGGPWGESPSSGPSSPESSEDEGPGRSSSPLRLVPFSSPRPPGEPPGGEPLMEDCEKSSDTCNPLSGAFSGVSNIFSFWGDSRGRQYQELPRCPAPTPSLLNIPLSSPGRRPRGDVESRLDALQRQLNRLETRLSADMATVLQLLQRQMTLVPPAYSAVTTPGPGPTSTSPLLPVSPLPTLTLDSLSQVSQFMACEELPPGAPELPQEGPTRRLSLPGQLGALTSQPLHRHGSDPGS

Row | Compound | IC50 [4] | CC50 at 4 days [1] | EC50 [2] | IC50 [3]
1 | CC1(C)CN(C(=O)Cn2c(=O)c(C(=O)NCc3ccc(Cl)cc3)cc3nc(N4CCN(CC(=O)O)C4=O)cnc32)C1 [Compound 5, [3-(7-{[(4-chlorophenyl)methyl]carbamoyl}-5-[2-(3,3-dimethylazetidin-1-yl)-2-oxoethyl]-6-oxo-5,6-dihydropyrido[2,3-b]pyrazin-2-yl)-2-oxoimidazolidin-1-yl]acetic acid] |  | > 40 µM | > 1000 nM | > 10 µM
2 | CC1(C)CN(C(=O)Cn2c(=O)c(C(=O)NCc3ccc(Cl)cc3)cc3cc(N4CCN(CC(=O)O)C4=O)cnc32)C1 [Compound 7, [3-(6-{[(4-chlorophenyl)methyl]carbamoyl}-8-[2-(3,3-dimethylazetidin-1-yl)-2-oxoethyl]-7-oxo-7,8-dihydro-1,8-naphthyridin-3-yl)-2-oxoimidazolidin-1-yl]acetic acid] |  | > 40 µM | > 1000 nM | > 10 µM
3 | CN1CCN(c2cnc3c(cc(C(=O)NCc4ccc(F)cc4)c(=O)n3CC(=O)N3CC4(CC4)C3)n2)C1=O [Compound 10, 5-[2-(5-azaspiro[2.3]hexan-5-yl)-2-oxoethyl]-N-[(4-fluorophenyl)methyl]-2-(3-methyl-2-oxoimidazolidin-1-yl)-6-oxo-5,6-dihydropyrido[2,3-b]pyrazine-7-carboxamide] | < 1000 nM |  |  | 
4 | CN1CCN(c2cnc3c(cc(C(=O)NCc4ccc(C#N)cc4)c(=O)n3CC(=O)N3CC4(CC4)C3)n2)C1=O [Compound 11, 5-[2-(5-azaspiro[2.3]hexan-5-yl)-2-oxoethyl]-N-[(4-cyanophenyl)methyl]-2-(3-methyl-2-oxoimidazolidin-1-yl)-6-oxo-5,6-dihydropyrido[2,3-b]pyrazine-7-carboxamide] | < 1000 nM |  |  | 
5 | CC1(F)CN(C(=O)Cn2c(=O)c(C(=O)NCc3ccc(Cl)cc3)cc3nc(N4CCN(CCN5CCOCC5)C4=O)cnc32)C1 [Compound 39, N-[(4-chlorophenyl)methyl]-5-[2-(3-fluoro-3-methylazetidin-1-yl)-2-oxoethyl]-2-{3-[2-(morpholin-4-yl)ethyl]-2-oxoimidazolidin-1-yl}-6-oxo-5,6-dihydropyrido[2,3-b]pyrazine-7-carboxamide] | > 1000 nM |  |  | 

The next lines start with results.

Row | IC50 [4] | Compound | CC50 at 4 days [1] | EC50 [2] | IC50 [3]
6 | < 1000 nM | CCOC(=O)CCN1CCN(c2cnc3c(cc(C(=O)NCc4ccc(Cl)cc4)c(=O)n3CC(=O)N3CC(C)(F)C3)n2)C1=O [Compound 17, ethyl 3-[3-(7-{[(4-chlorophenyl)methyl]carbamoyl}-5-[2-(3-fluoro-3-methylazetidin-1-yl)-2-oxoethyl]-6-oxo-5,6-dihydropyrido[2,3-b]pyrazin-2-yl)-2-oxoimidazolidin-1-yl]propanoate] |  |  | 
7 | < 1000 nM | CC1(F)CN(C(=O)Cn2c(=O)c(C(=O)NCc3ccc(Cl)cc3)cc3nc(N4CCN(CCC(=O)O)C4=O)cnc32)C1 [Compound 18, 3-[3-(7-{[(4-chlorophenyl)methyl]carbamoyl}-5-[2-(3-fluoro-3-methylazetidin-1-yl)-2-oxoethyl]-6-oxo-5,6-dihydropyrido[2,3-b]pyrazin-2-yl)-2-oxoimidazolidin-1-yl]propanoic acid] | > 40 µM |  | > 10 µM
8 | < 1000 nM | CNCCN1CCN(c2cnc3c(cc(C(=O)NCc4ccc(Cl)cc4)c(=O)n3CC(=O)N3CC(C)(F)C3)n2)C1=O [Compound 23, N-[(4-chlorophenyl)methyl]-5-[2-(3-fluoro-3-methylazetidin-1-yl)-2-oxoethyl]-2-{3-[2-(methylamino)ethyl]-2-oxoimidazolidin-1-yl}-6-oxo-5,6-dihydropyrido[2,3-b]pyrazine-7-carboxamide-hydrogen chloride] |  |  | 
9 | > 1000 nM | CN(CCN1CCN(c2cnc3c(cc(C(=O)NCc4ccc(Cl)cc4)c(=O)n3CC(=O)N3CC(C)(F)C3)n2)C1=O)S(C)(=O)=O [Compound 24, N-[(4-chlorophenyl)methyl]-5-[2-(3-fluoro-3-methylazetidin-1-yl)-2-oxoethyl]-2-(3-{2-[(methanesulfonyl)(methyl)amino]ethyl}-2-oxoimidazolidin-1-yl)-6-oxo-5,6-dihydropyrido[2,3-b]pyrazine-7-carboxamide] |  |  | 
10 | < 1000 nM | CC1(F)CN(C(=O)Cn2c(=O)c(C(=O)NCc3ccc(Cl)cc3)cc3nc(N4CCN(CCNC(=O)CN)C4=O)cnc32)C1 [Compound 38, N-[(4-chlorophenyl)methyl]-5-[2-(3-fluoro-3-methylazetidin-1-yl)-2-oxoethyl]-2-{3-[2-(glycylamino)ethyl]-2-oxoimidazolidin-1-yl}-6-oxo-5,6-dihydropyrido[2,3-b]pyrazine-7-carboxamide-hydrochloride salt] |  |  | 
